Assay results reported in US20250236596A1, “HYDROXYLAMINE-BASED EGFR INHIBITORS FOR TREATMENT OF CANCER WITH BRAIN METASTASES” (University of Georgia Research Foundation, Inc., priority 2022, published 2025).

Legend:
[1] = test system: Salmonella strains (TA98, TA100, TA1537 and TA1535); format: cell-based; conditions: with and without rat liver S9; 4 Salmonella strains
Description: Compounds were assessed for mutagenicity at Eurofins Panlabs. in 384-well plates using four Salmonella strains: TA98, to probe for frameshift mutation (with quercetin as control), TA100 and TA1535, to probe for base pair […] (with streptozotocin as control), and TA1537, to probe for frameshift mutations (with aminoacridine as control) as previously described.^21 Each compound was incubated at 37° C. for 96 h at four different concentrations (5, 10, 50, and 100 μM), with each concentration tested using 48 replicates, both with and without rat liver S9 metabolic activation. A concurrent bacterial cytotoxicity assay was ran at 0.6, 1.2, 2.5, 5, 10, 25, 50 and 100 μM to rule out false negatives. Bacterial cytotoxicity was expressed as percent of control growth (OD650). Compounds with growth of less than 60% control were flagged and considered bacterial cytotoxic. […] Significances of the positive counts between the treatment and control were determined using one-tailed Fisher's exact test.

[2] = test system: Caco-2 cells; test: Caco-2 cell permeability assay; format: in vitro ADME; conditions: for efflux / permeability: result in words
Description: (§1) Compounds were evaluated at Pharmaron Inc. for their ability to permeate Caco-2 cells and MDCKII-MDR1 cells. A 96-well HTS Transwell plate (Corning) was used for the Caco-2 and MDCKII-MDR1 cell seeding. Caco-2 cells were seeded at a density of 6.86×10^5 cells/mL and cultivated for 14-18 days prior to assays. MDCKII-MDR1 cells were seeded at a density of 1.56×10^6 cells/mL and cultivated for 4-8 days prior to assays. To determine the rate of drug transport in both the absorptive (apical to basolateral (A-B)) and secretory (basolateral to apical (B-A)) directions, compounds (5 μM in DMSO for Caco-2 cells, and 1 μM in DMSO for MDCKII-MDR1 cells) were added to the donor wells. Plates were incubated at 37° C. for 2 h and samples (50 μL) were taken at the beginning and end of the incubation in both the donor and acceptor wells with the assay run in duplicate (n=2). Samples were analyzed by LC-MS/MS. The apparent permeability coefficient (Papp) in units (cm/s×10^−6) was calculated using the following equation.
(§2) where, VA represents the volume (mL) in the acceptor well. Area is the surface of the membrane (0.143 cm^2 for Transwell-96 well plate) and time is the total transport time in sec.
(§3) The efflux ratio was determined using the following equation: Efflux ratio=Papp (B-A)/Papp(A-B)
(§4) Where, Papp (B-A) indicates the apparent permeability in the basolateral to apical direction, and Papp (A-B) indicates the apparent permeability in the apical to basolateral direction.

[3] = test system: activating mutant bearing EGFR; test: KinaseProfiler enzymatic radiometric biochemical inhibition (IC50); conditions: ATP 10 μM, result in words
Description: (§5) In vitro kinase activity (inhibitor binding constants (Kd) and biochemical inhibition (IC50's)) were assessed by Eurofins DiscoverX (Kd determinations) and Eurofins Cerep (biochemical IC50 determinations).

[4] = target: activating mutant bearing EGFR; test: KINOMEScan KdELECT inhibitor binding constants (Kd); conditions: result in words
Description: as §5

[5] = test system: MDCKII-MDR1 cells; test: MDCKII-MDR1 cell permeability assay; format: in vitro ADME, canine
Description: as §1, §2, §3, §4

| efflux [2] | permeability [2] | permeability ([5]; result in words) | Compound | mutagenicity in AMES fluctuation assay [1] | enhancement in permeability compared to 1 [2] [fold] | biochemical inhibition (IC50) [3] | inhibitor-binding constants (Kd) [4] | increase in permeability compared to 1 [5] | efflux ([5]; result in words) |
| --- | --- | --- | --- | --- | --- | --- | --- | --- | --- |
|  |  |  | COc1cc2ncnc(Nc3ccc(F)c(Cl)c3)c2cc1OCCCN1CCOCC1 [Compound 1, Gefitinib, reference compound] | neither 1 or 6 were mutagenic |  |  |  |  |  |
| high efflux | low permeability |  | COc1cc2ncnc(Nc3ccc(F)c(Cl)c3)c2cc1OCCON1CCN(C)CC1 [Compound 14, N-(3-chloro-4-fluorophenyl)-7-methoxy-6-(2-((4-methylpiperazin-1-yl)oxy)ethoxy)quinazolin-4-amine] |  |  |  |  |  |  |
| reduced efflux ratios | remarkably enhanced permeability | excellent permeability | COc1cc2ncnc(Nc3cccc(Cl)c3F)c2cc1OCCON1CCOCC1 [Compound 13, N-(3-chloro-2-fluorophenyl)-7-methoxy-6-(2-(morpholinooxy)ethoxy)quinazolin-4-amine] |  |  |  |  |  | low efflux |

| Compound | efflux [2] | permeability [2] | permeability ([5]; result in words) | mutagenicity in AMES fluctuation assay [1] | enhancement in permeability compared to 1 [2] [fold] | biochemical inhibition (IC50) [3] | inhibitor-binding constants (Kd) [4] | increase in permeability compared to 1 [5] | efflux ([5]; result in words) |
| --- | --- | --- | --- | --- | --- | --- | --- | --- | --- |
| COc1cc2ncnc(Nc3ccc(F)c(Cl)c3)c2cc1OCCON1CCOCC1 [Compound 6, N-(3-chloro-4-fluorophenyl)-7-methoxy-6-(2-(morpholinooxy)ethoxy)quinazolin-4-amine] | greatly decreased efflux |  |  | neither 1 or 6 were mutagenic | 14 | single-digit nanomolar | single-digit nanomolar | roughly 4 fold | decreased efflux |
